Reference: patent US20170050980A1, “OXADIAZINE COMPOUNDS AND METHODS OF USE THEREOF” (FORUM Pharmaceuticals Inc., priority 2015, published 2017)

system: Aβ42; assay: In vitro cell screening assay; quantification of Aβ (1-42) peptide by sandwich ELISA; format: cell-based; conditions: Human neuroglioma H4 cells stably expressing human wild type APP751; compounds 0.003-10 μM, incubated overnight (16-18 h); Aβ42 in supernatant by sandwich ELISA; normalized to DMSO and DAPT; read-out: Aβ42 H4 Prot Fre IC50
Outline: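 Stable H4 neuroglioma line expressing human wild-type APP751; compounds 0.003-10 μM (0.33% DMSO final) added in Pro293 medium 6 h after plating, incubated overnight (16-18 h) at 37 °C. Secreted Aβ42 measured in supernatant by C-terminal-capture sandwich ELISA with 4G8-HRP detection; IC50 by sigmoidal fit, normalized to DMSO and DAPT.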

SMILES | IC50 [nM]
COc1nc(C2=NOC(C)C(c3cn(C)c4cc(F)c(Cl)cc34)N2)ccc1-n1cnc(C)c1 (single isomer, unassigned; (-)) [Example 21C, (−)-5-(5-chloro-6-fluoro-1-methyl-1H-indol-3-yl)-3-(6-methoxy-5-(4-methyl-1H-imidazol-1-yl)pyridin-2-yl)-6-methyl-5,6-dihydro-4H-1,2,4-oxadiazine] | 370
COc1nc(C2=NOC(C)C(c3cccc(Cl)c3)N2)ccc1-n1cnc(C)n1 (single isomer, unassigned; (-)) [Example 53A, (−)-5-(3-chlorophenyl)-3-(6-methoxy-5-(3-methyl-1H-1,2,4-triazol-1-yl)pyridin-2-yl)-6-methyl-5,6-dihydro-4H-1,2,4-oxadiazine] | > 3000
COc1nc(C2=NOC(C)C(c3ccc(Cl)cc3)N2)ccc1-n1cnc(C)c1 (stereo not drawn) [Example 24B, (+)-trans-5-(4-chlorophenyl)-3-[6-methoxy-5-(4-methyl-1H-imidazol-1-yl)pyridin-2-yl]-6-methyl-5,6-dihydro-4H-1,2,4-oxadiazine] | 15
COc1nc(C2=NOC(C)C(c3ccc(Cl)cc3)N2)ccc1-n1cnc(Cl)c1 (single isomer, unassigned; (-)) [Example 42A, (−)-3-(5-(4-chloro-1H-imidazol-1-yl)-6-methoxypyridin-2-yl)-5-(4-chlorophenyl)-6-methyl-5,6-dihydro-4H-1,2,4-oxadiazine] | > 3000
COc1nc(C2=NOC(C)C(c3ccc(Cl)c(Cl)c3)N2)ccc1-n1cnc(C)c1 (stereo not drawn) [Example 19B, (+)-cis-5-(3,4-dichlorophenyl)-3-[6-methoxy-5-(4-methyl-1H-imidazol-1-yl)pyridin-2-yl]-6-methyl-5,6-dihydro-4H-1,2,4-oxadiazine] | 6
COc1nc(C2=NOC(C)C(c3cn(C)c4cc(F)c(Cl)cc34)N2)ccc1-n1cnc(C)c1 (single isomer, unassigned; (-)) [Example 21A, (−)-5-(5-chloro-6-fluoro-1-methyl-1H-indol-3-yl)-3-(6-methoxy-5-(4-methyl-1H-imidazol-1-yl)pyridin-2-yl)-6-methyl-5,6-dihydro-4H-1,2,4-oxadiazine] | 65
COc1nc(C2=NOC(C)C(c3cn(C)c4ncc(C(F)(F)F)cc34)N2)ccc1-n1cnc(C)c1 (single isomer, unassigned; (-)) [44C or 45C, (−)-3-(6-methoxy-5-(4-methyl-1H-imidazol-1-yl)pyridin-2-yl)-6-methyl-5-(1-methyl-5-(trifluoromethyl)-1H-pyrrolo[2,3-b]pyridin-3-yl)-5,6-dihydro-4H-1,2,4-oxadiazine] | ~1380
COc1nc(C2=NOC(C)C(c3cc4ccc(Cl)cc4o3)N2)ccc1-n1cnc(C)c1 (single isomer, unassigned) [Example 46B, 5-(6-chlorobenzofuran-2-yl)-3-(6-methoxy-5-(4-methyl-1H-imidazol-1-yl)pyridin-2-yl)-6-methyl-5,6-dihydro-4H-1,2,4-oxadiazine] | 5.1
COc1nc(C2=NOC(C)C(c3cn(C)c4cc(F)c(F)cc34)N2)ccc1-n1cnc(C)c1 (single isomer, unassigned; (-)) [Example 39B, (−)-5-(5,6-difluoro-1-methyl-1H-indol-3-yl)-3-(6-methoxy-5-(4-methyl-1H-imidazol-1-yl)pyridin-2-yl)-6-methyl-5,6-dihydro-4H-1,2,4-oxadiazine] | 70.4
COc1nc(C2=NOC(C)(C)C(c3ccccc3)N2)ccc1-n1cnc(C)c1 (single isomer, unassigned; (-)) [Example 22A, (−)-3-[6-methoxy-5-(4-methyl-1H-imidazol-1-yl)pyridin-2-yl]-6,6-dimethyl-5-phenyl-5,6-dihydro-4H-1,2,4-oxadiazine] | > 3000
COc1nc(C2=NOC(C)C(c3c4n(c5ccc(Cl)cc35)CCOC4)N2)ccc1-n1cnc(C)c1 (single isomer, unassigned; (+)) [Example 50D, (+)-8-chloro-10-(3-(6-methoxy-5-(4-methyl-1H-imidazol-1-yl)pyridin-2-yl)-6-methyl-5,6-dihydro-4H-1,2,4-oxadiazin-5-yl)-3,4-dihydro-1H-[1,4] oxazino [4,3-a] indole] | 6.3
COc1nc(C2=NOCC(c3cn(C)c4ccc(C5CCOCC5)cc34)N2)ccc1-n1cnc(C)c1 (single isomer, unassigned; (+)) [Example 29B, (+)-3-(6-methoxy-5-(4-methyl-1H-imidazol-1-yl)pyridin-2-yl)-5-(1-methyl-5-(tetrahydro-2H-pyran-4-yl)-1H-indol-3-yl)-5,6-dihydro-4H-1,2,4-oxadiazine] | 20.5
COc1nc(C2=NOCC(c3cn(C)c4ccc(C5CCOCC5)cc34)N2)ccc1-n1cnc(C)c1 (single isomer, unassigned; (-)) [Example 29A, (−)-3-(6-methoxy-5-(4-methyl-1H-imidazol-1-yl)pyridin-2-yl)-5-(1-methyl-5-(tetrahydro-2H-pyran-4-yl)-1H-indol-3-yl)-5,6-dihydro-4H-1,2,4-oxadiazine] | 663
COc1nc(C2=NOC(C3CC3)C(c3ccc(Cl)cc3)N2)ccc1-n1cnc(C)c1 (stereo not drawn) [Example 20A, (−)-cis-5-(4-chlorophenyl)-6-cyclopropyl-3-[6-methoxy-5-(4-methyl-1H-imidazol-1-yl)pyridin-2-yl]-5,6-dihydro-4H-1,2,4-oxadiazine] | 1780
COc1nc(C2=NO[C@H](C)[C@H](c3ccc(Cl)cc3)N2)ccc1-n1cnc(C)c1 [Example 18B, (+)-(5S,6R)-5-(4-chlorophenyl)-3-[6-methoxy-5-(4-methyl-1H-imidazol-1-yl)pyridin-2-yl]-6-methyl-5,6-dihydro-4H-1,2,4-oxadiazine] | 19
COc1cc(C2=NOC(C)C(c3ccc(Cl)cc3)N2)ccc1-n1cnc(C)c1 (single isomer, unassigned; (+)) [Example 43B, (+)-5-(4-chlorophenyl)-3-(3-methoxy-4-(4-methyl-1H-imidazol-1-yl)phenyl)-6-methyl-5,6-dihydro-4H-1,2,4-oxadiazine] | 80.5
COc1nc(C2=NOC(C3CC3)C(c3cc(F)cc(F)c3)N2)ccc1-n1cnc(C)c1 (single isomer, unassigned; (-)) [Example 59B, (−)-6-cyclopropyl-5-(3,5-difluorophenyl)-3-(6-methoxy-5-(4-methyl-1H-imidazol-1-yl)pyridin-2-yl)-5,6-dihydro-4H-1,2,4-oxadiazine] | 854
COc1nc(C2=NOC(C)C(c3cn(C)c4cc(F)c(Cl)cc34)N2)ccc1-n1cnc(C)c1 (single isomer, unassigned; (+)) [Example 21B, (+)-5-(5-chloro-6-fluoro-1-methyl-1H-indol-3-yl)-3-(6-methoxy-5-(4-methyl-1H-imidazol-1-yl)pyridin-2-yl)-6-methyl-5,6-dihydro-4H-1,2,4-oxadiazine] | 3
